Data reported in US20070238770A1, “PROCESS FOR PREPARING NOVEL CRYSTALLINE FORMS OF PELIGLITAZAR, NOVEL STABLE FORMS PRODUCED THEREIN AND FORMULATIONS” (Bristol-Myers Squibb Company, priority 2006, published 2007).

Experiments:
Solubility in water = assay type: physicochemical; details: final pH 7.6
[1] = Solid state stability under storage conditions (DSC, PXRD, HPLC); details: for solid state stability (physically and chemically): RT/RL, 25° C./60% RH, 40° C./75% RH, 50° C., up to 2 weeks, DSC, PXRD, HPLC analysis
[2] = Moisture-sorption isotherm; assay type: physicochemical; details: from 25 to 75% RH at 25° C.
Description: Moisture sorption isotherms were collected in a VTI SGA-100 Symmetric Vapor Analyzer using approximately 10 mg of sample. The sample was dried at 60° C. until the loss rate of 0.0005 wt %/min was obtained for 10 minutes. The sample was tested at 25° C. and 3 or 4, 5, 15, 25, 35, 45, 50, 65, 75, 85, and 95% RH. Equilibration at each RH was reached when the rate of 0.0003 wt %/min for 35 minutes was achieved or a maximum of 600 minutes.

[3] = Mechanical stress on crystal form; assay type: physicochemical; details: mechanical stress applied

SMILES | solubility in water (Solubility in water) | solid state stability (physically and chemically) [1] | moisture uptake (hygroscopicity) [2] | conversion of N-1 form to the N-2 form under mechanical stress [3] | conversion of the N-1 form to the N-2 form (PXRD analysis) ([1]; under the storage conditions of b18)
COc1ccc(OC(=O)N(CC(=O)O)[C@@H](C)c2ccc(OCCc3nc(-c4ccccc4)oc3C)cc2)cc1.NCCCC[C@H](N)C(=O)O | greater than 124 mg/mL | stable | – | – | –
COc1ccc(OC(=O)N(CC(=O)O)[C@@H](C)c2ccc(OCCc3nc(-c4ccccc4)oc3C)cc2)cc1 [Form N-1, peliglitazar] | – | stable | negligible | will not cause conversion | no conversion
